Source: US9359298B2, “Cajanine structure analogous compound, preparation method and use” (INSTITUTE OF MEDICINAL BIOTECHNOLOGY, CHINESE ACADEMY OF …, priority 2011, dated 2016)
Values after ≈ are worked out from the molar mass of the structure shown. Like-named read-outs stand apart in the source and are kept apart here.

Legend:
Assay type in all cases: cell-based
[1] = system: Influenza A virus (hanfang359/95); assay: Determination of anti-influenza virus activity (CPE in MDCK cells); conditions: for IC50: Influenza A virus, MDCK, 36 h; for anti-influenza virus activities compared with the lead compound cajanine: statement in words
HCV = assay: Anti-hepatitis C virus (HCV) activity assay (HCV RNA in Huh7.5 cells); conditions: for EC50: Hepatitis C virus, Huh7.5, 72 h, read-out: HCV EC50; for anti-HCV viral activity: statement in words
Method: Inoculate Huh7.5 cells into 96-well plates to a density of 3×10^4 cells/cm^2, culture for 24h, infect the cells with 45 IU/cell HCV supernatant, meanwhile, add drug solutions or solvent control for treatment.

Coxsackie virus B6 = assay: Coxsackie virus activity assay (CPE in Vero cells); conditions: for IC50: Vero
PC12 cells [2] = assay: Neuroprotective activity assay, rotenone injury to PC12 cells (MTT); conditions: 10 μM test compound, 4 μM rotenone, 48 h, Control 100.0 ± 8.9, Model 73.2 ± 7.8; for viability at 10 µM: Rattus norvegicus, PC-12, 48 h, read-out: rotenone (surviving PC12 cells, MTT 570 nm)
Method: (§1) Discard the original culture media from confluent monolayers of PC12 cells (simulated neuronal cells), add DMEM complete medium with 5% FBS, 5% horse serum gently beat upon the cells with a pipette to completely disperse them, inoculate 100 μl cell suspension at a density of […] per well to 96 hole plates treated with poly-lysine (0.1 mg/ml) in advance, culture for 24h. Divide the experimenting cells into control group, model group and dosing groups. Add complete medium to the control group. Model groups includes rotenone group and serum-deprived group, add rotenone to the corresponding modules with a final concentration of 4 μM rotenone to take effect on the cells for 48 h, add serum-deprived groups with serum-free DMEM medium to take effect on the cells for 48 h. Dosing groups also includes two groups, one using rotenone module as model, another using serum-deprived module as model, and both add in 10 μM test compounds during modeling. 48h later, add 10 μl 5 mg/ml MTT, subsequently discard the supernatant 4h later and add in 150 μl DMSO, measure 570 nm absorbance to represent the numbers of surviving cells.

HIV-1 III B virus = assay: Anti-HIV activity assay (P24 antigen in MT-4 cells); conditions: for IC50: Human immunodeficiency virus 1, MT4, 96 h, read-out: HIV IC50; for anti-HIV viral activity: statement in words
PC12 cells [3] = assay: Neuroprotective activity assay, serum-deprived injury to PC12 cells (MTT); conditions: 10 μM test compound, 48 h, Control 100.0 ± 9.2, Model 69.3 ± 4.1; for viability at 10 µM: Rattus norvegicus, PC-12, 48 h, read-out: serum-deprived (surviving PC12 cells, MTT 570 nm)
Method: as §1

[4] = Huh7.5 cells, 72 h, HCV RNA by RT-PCR, Reed-Muench
[5] = MT-4 cells, HIV-1 III B 100TCID50, 96 h, P24 antigen
[6] = read-out: COX-B6 IC50, Vero cells, about 100TCID50, CPE, Reed-Muench

Molecule: 2-isopentenyl-3-methoxy-5-[4′-methylcyclohexylene methyl]phenol [Compound 10n]
- Influenza A virus (hanfang359/95) IC50 [1]: >0.69 µg/mL
- HCV EC50 (HCV; [4]): 0.89 µg/mL
- COX-B6 IC50 (Coxsackie virus B6): >2.05 µg/mL
- rotenone (surviving PC12 cells, MTT 570 nm) (PC12 cells [2]): 78.6 ± 3.2
- HIV IC50 (HIV-1 III B virus; [5]): 1.43 µg/mL
- serum-deprived (surviving PC12 cells, MTT 570 nm) (PC12 cells [3]): 79.6 ± 2.8

Molecule: COc1cc(/C=C/c2cc(O)cc(O)n2)c(C(=O)O)c(O)c1CC=C(C)C [1a′, 2-hydroxy-3-isopentenyl-4-methoxy-6-[(E)-2-(4,6-dihydroxy-2-yl)ethenyl]benzoic acid]
- IC50 [1]: 0.19 µg/mL (≈ 0.512 µM)
- EC50 (HCV; [4]): 0.94 µg/mL (≈ 2.53 µM)
- anti-HCV viral activity (HCV): stronger anti-HIV, HCV viral activities
- IC50 (Coxsackie virus B6; [6]): 0.36 µg/mL (≈ 0.969 µM)
- viability at 10 µM (PC12 cells [2]): 87.2 ± 4.3%
- IC50 (HIV-1 III B virus; [5]): 1.38 µg/mL (≈ 3.72 µM)
- anti-HIV viral activity (HIV-1 III B virus): stronger anti-HIV, HCV viral activities
- viability at 10 µM (PC12 cells [3]): 88.7 ± 4.9%

Molecule: COc1cccc(/C=C/c2cc(OC)c(CC=C(C)C)c(O)c2C(=O)O)n1 [1b′, 2-hydroxy-3-isopentenyl-4-methoxy-6-[(E)-2-(6-methoxypyrid-2-yl)ethenyl]benzoic acid]
- IC50 [1]: 4.62 µg/mL (≈ 12.5 µM)
- EC50 (HCV; [4]): 0.88 µg/mL (≈ 2.38 µM)
- anti-HCV viral activity (HCV): stronger anti-HIV, HCV viral activities
- IC50 (Coxsackie virus B6; [6]): 5.98 µg/mL (≈ 16.2 µM)
- viability at 10 µM (PC12 cells [2]): 87.2 ± 6.31%
- IC50 (HIV-1 III B virus; [5]): 3.19 µg/mL (≈ 8.64 µM)
- anti-HIV viral activity (HIV-1 III B virus): stronger anti-HIV, HCV viral activities
- viability at 10 µM (PC12 cells [3]): 88.9 ± 1.9%

Molecule: COc1cc(/C=C/c2cccc(O)n2)c(C(=O)O)c(O)c1CC=C(C)C [1c′, 2-hydroxy-3-isopentenyl-4-methoxy-6-[(E)-2-(6-hydroxypyrid-2-yl)ethenyl]benzoic acid]
- IC50 [1]: 1.34 µg/mL (≈ 3.77 µM)
- EC50 (HCV; [4]): 1.3 µg/mL (≈ 3.66 µM)
- IC50 (Coxsackie virus B6; [6]): 2.56 µg/mL (≈ 7.2 µM)
- viability at 10 µM (PC12 cells [2]): 85.6 ± 3.8%
- IC50 (HIV-1 III B virus; [5]): 1.61 µg/mL (≈ 4.53 µM)
- viability at 10 µM (PC12 cells [3]): 85.9 ± 4.7%

Molecule: C=CCc1c(OC)cc(/C=C/c2ccccc2)c(C(=O)OC)c1O [8a′, methyl 2-hydroxy-3-allyl-4-methoxy-6-[(E)-styryl]benzoate]
- IC50 [1]: 0.15 µg/mL (≈ 0.462 µM)
- IC50 (Coxsackie virus B6; [6]): 1.64 µg/mL (≈ 5.06 µM)
- viability at 10 µM (PC12 cells [2]): 88 ± 6.9%
- viability at 10 µM (PC12 cells [3]): 87.9 ± 2.5%

Molecule: COc1cc(/C=C/c2cc(O)ccn2)cc(O)c1CC=C(C)C [10a′, 2-isopentenyl-3-methoxy-5-[(E)-2-(4-hydroxypyrid-2-yl)ethenyl]phenol]
- IC50 [1]: 0.17 µg/mL (≈ 0.546 µM)
- EC50 (HCV; [4]): 1.41 µg/mL (≈ 4.53 µM)
- IC50 (Coxsackie virus B6; [6]): 0.41 µg/mL (≈ 1.32 µM)
- viability at 10 µM (PC12 cells [2]): 89.2 ± 3.2%
- IC50 (HIV-1 III B virus; [5]): 1.33 µg/mL (≈ 4.27 µM)
- viability at 10 µM (PC12 cells [3]): 86.3 ± 1.2%

Molecule: COc1cc(/C=C/c2cc(O)c(CC=C(C)C)c(OC)c2)nc(OC)c1 [10d′]
- IC50 [1]: 0.14 µg/mL (≈ 0.394 µM)
- EC50 (HCV; [4]): 0.65 µg/mL (≈ 1.83 µM)
- IC50 (Coxsackie virus B6; [6]): 0.35 µg/mL (≈ 0.985 µM)
- viability at 10 µM (PC12 cells [2]): 94.3 ± 5.4%
- IC50 (HIV-1 III B virus; [5]): 1.3 µg/mL (≈ 3.66 µM)
- viability at 10 µM (PC12 cells [3]): 91.2 ± 3.2%

Molecule: COc1cc(/C=C/c2cc(O)cc(O)n2)cc(O)c1CC=C(C)C [10e′]
- IC50 [1]: 0.21 µg/mL (≈ 0.641 µM)
- EC50 (HCV; [4]): 1.87 µg/mL (≈ 5.71 µM)
- IC50 (Coxsackie virus B6; [6]): 1.21 µg/mL (≈ 3.7 µM)
- viability at 10 µM (PC12 cells [2]): 88.9 ± 2.8%
- IC50 (HIV-1 III B virus; [5]): 0.71 µg/mL (≈ 2.17 µM)
- viability at 10 µM (PC12 cells [3]): 87.9 ± 4.7%

Molecule: COc1cccc(/C=C/c2cc(O)c(CC=C(C)C)c(OC)c2)n1 [10f′]
- IC50 [1]: 0.23 µg/mL (≈ 0.707 µM)
- EC50 (HCV; [4]): 0.61 µg/mL (≈ 1.87 µM)
- IC50 (Coxsackie virus B6; [6]): 2.31 µg/mL (≈ 7.1 µM)
- viability at 10 µM (PC12 cells [2]): 79.1 ± 5.6%
- IC50 (HIV-1 III B virus; [5]): 1.04 µg/mL (≈ 3.2 µM)
- viability at 10 µM (PC12 cells [3]): 80.5 ± 3.2%

Molecule: COc1cc(/C=C/c2cccc(O)n2)cc(O)c1CC=C(C)C [10g′]
- IC50 [1]: 0.87 µg/mL (≈ 2.79 µM)
- EC50 (HCV; [4]): 2.3 µg/mL (≈ 7.39 µM)
- IC50 (Coxsackie virus B6; [6]): 0.12 µg/mL (≈ 0.385 µM)
- viability at 10 µM (PC12 cells [2]): 63.5 ± 2.1%
- IC50 (HIV-1 III B virus; [5]): 3.93 µg/mL (≈ 12.6 µM)
- viability at 10 µM (PC12 cells [3]): 71 ± 5.2%

Molecule: C=CCc1c(O)cc(/C=C/c2ccccc2)cc1OC [10h′, 2-allyl-3-methoxy-5-[(E)-styryl]phenol]
- IC50 [1]: 0.09 µg/mL (≈ 0.338 µM)
- IC50 (Coxsackie virus B6; [6]): 0.54 µg/mL (≈ 2.03 µM)
- viability at 10 µM (PC12 cells [2]): 86.7 ± 4.5%
- viability at 10 µM (PC12 cells [3]): 87.6 ± 4.3%

Molecule: COc1cc(/C=C/c2ccc(F)cc2)c(C(=O)O)c(O)c1CC=C(C)C [Compound 1a, 2-hydroxy-3-isopentenyl-4-methoxy-6-[(E)-4-fluorostyryl]benzoic acid]
- IC50 [1]: > 0.69 µg/mL
- EC50 (HCV; [4]): 1.04 µg/mL (≈ 2.92 µM)
- anti-HCV viral activity (HCV): stronger anti-HIV, HCV viral activities
- IC50 (Coxsackie virus B6; [6]): > 0.69 µg/mL
- viability at 10 µM (PC12 cells [2]): 62.4 ± 3.8%
- IC50 (HIV-1 III B virus; [5]): 1.01 µg/mL (≈ 2.83 µM)
- anti-HIV viral activity (HIV-1 III B virus): stronger anti-HIV, HCV viral activities
- viability at 10 µM (PC12 cells [3]): 16.7 ± 0.6%

Molecule: COC(=O)c1c(/C=C/c2ccccc2)cc(OC)c(CC=C(C)C)c1OC(=N)N [Compound 27a, 2-iso-ureido-3-isopentenyl-4-methoxy-6-[(E)-styryl]-benzoate]
- IC50 [1]: 1.32 µg/mL (≈ 3.35 µM)
- EC50 (HCV; [4]): 1.34 µg/mL (≈ 3.4 µM)
- IC50 (Coxsackie virus B6; [6]): 2.34 µg/mL (≈ 5.93 µM)
- IC50 (HIV-1 III B virus; [5]): 2.48 µg/mL (≈ 6.29 µM)

Molecule: COc1cc(/C=C/c2ccccc2)cc(OC(=N)N)c1CC=C(C)C [Compound 27c, 2-isopentenyl-3-isoureido-5-[(E)-styryl]anisole]
- IC50 [1]: 0.54 µg/mL (≈ 1.61 µM)
- EC50 (HCV; [4]): 1.26 µg/mL (≈ 3.75 µM)
- IC50 (Coxsackie virus B6; [6]): 0.92 µg/mL (≈ 2.73 µM)
- IC50 (HIV-1 III B virus; [5]): 2.03 µg/mL (≈ 6.03 µM)

Molecule: COC(=O)c1c(/C=C/c2ccccc2)cc(OC)c(CC=C(C)C)c1OC(=O)NN [Compound 29a, methyl 2-Hydrazinoformyloxy-3-isopentenyl-4-methoxy-6-[(E)-styryl]benzoate]
- IC50 [1]: 0.98 µg/mL (≈ 2.39 µM)
- EC50 (HCV): 0.51 µg/mL (≈ 1.24 µM)
- anti-HCV viral activity (HCV): stronger anti-HIV, HCV viral activities
- IC50 (Coxsackie virus B6; read-out: COX-B6 IC50): 1.36 µg/mL (≈ 3.31 µM)
- IC50 (HIV-1 III B virus): 0.43 µg/mL (≈ 1.05 µM)
- anti-HIV viral activity (HIV-1 III B virus): stronger anti-HIV, HCV viral activities

Molecule: COc1cc(/C=C/c2ccccc2)cc(OC(=O)NN)c1CC=C(C)C [Compound 29c, 2-isopentenyl-3-hydrazinoformylox-5-[(E)-styryl]anisole]
- IC50 [1]: 0.24 µg/mL (≈ 0.681 µM)
- anti-influenza virus activities compared with the lead compound cajanine [1]: significantly stronger than the lead compound cajanine
- EC50 (HCV): 0.89 µg/mL (≈ 2.53 µM)
- IC50 (Coxsackie virus B6; read-out: COX-B6 IC50): 0.36 µg/mL (≈ 1.02 µM)
- IC50 (HIV-1 III B virus): 0.6 µg/mL (≈ 1.7 µM)

Molecule: COC(=O)c1c(/C=C/c2ccccc2)cc(OC)c(CC=C(C)C)c1OC(=O)C(=O)O [Compound 31a, methyl 2-carboxyformylxy-3-isopentenyl-4-methoxy-6-[(E)-styryl]benzoate]
- IC50 [1]: 0.14 µg/mL (≈ 0.33 µM)
- anti-influenza virus activities compared with the lead compound cajanine [1]: significantly stronger than the lead compound cajanine
- EC50 (HCV; [4]): 0.71 µg/mL (≈ 1.67 µM)
- IC50 (Coxsackie virus B6; [6]): 2.31 µg/mL (≈ 5.44 µM)
- IC50 (HIV-1 III B virus; [5]): 1.3 µg/mL (≈ 3.06 µM)

Molecule: COc1cc(/C=C/c2ccccc2)cc(OC(=O)C(=O)O)c1CC=C(C)C [Compound 31c, 2-isopentenyl-3-carboxyformyloxy-5-[(E)-styryl]anisole]
- IC50 [1]: 0.08 µg/mL (≈ 0.218 µM)
- anti-influenza virus activities compared with the lead compound cajanine [1]: significantly stronger than the lead compound cajanine
- EC50 (HCV; [4]): 0.77 µg/mL (≈ 2.1 µM)
- anti-HCV viral activity (HCV): stronger anti-HIV, HCV viral activities
- IC50 (Coxsackie virus B6; [6]): 0.67 µg/mL (≈ 1.83 µM)
- IC50 (HIV-1 III B virus; [5]): 0.29 µg/mL (≈ 0.791 µM)
- anti-HIV viral activity (HIV-1 III B virus): stronger anti-HIV, HCV viral activities
